In patent US10815238B2, “Antimicrobial compounds and methods of making and using the same” (BIOVERSYS AG, priority 2013, dated 2020):

Assays:
[1] = system: Staphylococcus aureus (S. aureus) 11540 strain; experiment: Standard microdilution assay, MIC against S. aureus 11540; format: cell-based; settings: S. aureus 11540 strain, standard microdilution assay, cutoff 16 micrograms/mL, read-out: MIC S. aureus
Method: The in vitro activity of the compounds of the present invention can be determined. Antimicrobial testing is typically performed to determine the minimum inhibitory concentration (MIC). Minimum inhibitory concentrations (MICs) are determined by the microdilution method in a final volume of 100 μl according to protocols outlined by The Clinical and Laboratory Standards Institute (CLSI). Performance standards for reference strains are assessed within the same experimental design to maintain quality control. See, for example, Clinical Laboratory Standards Institute: Methods for dilution antimicrobial susceptibility tests for bacteria that grow aerobically M7-A8. Approved Standard-Eighth Edition. Wayne, Pa.: CLSI; December 2008; and Clinical Laboratory Standards Institute: Performance Standards for Antimicrobial Susceptibility Testing M100-S20; Approved Standard-Twentieth Edition. Wayne, Pa.: CLSI; June 2010.
The compounds of the present invention were tested for antimicrobial activity. The Compounds 1-582 were run against Eschericia coli (E. coli) strain ATCC25922 and Compounds 320-582 were run against Staphylococcus aureus (S. aureus) 11540 strain using a standard microdilution assay to determine minimum inhibitory concentrations (MICs). […] It will be recognized by one skilled in the art that the compounds can be assessed against other bacterial organisms and that the presentation of data for activity against Eschericia coli and Staphylococcus aureus are illustrative and in no way is intended to limit the scope of the present invention. The compounds of the present invention can be assayed against a range of other microorganisms depending upon the performance activity desired to be gathered. Furthermore, the “+” and “−” representation and the selection of a cutoff value of 16 micrograms/mL is also illustrative and in no way is intended to limit the scope of the present invention.

[2] = system: Eschericia coli (E. coli) strain ATCC25922; experiment: Standard microdilution assay, MIC against E. coli ATCC25922; format: cell-based; settings: Escherichia coli; E. coli strain ATCC25922, standard microdilution assay; cutoff 16 micrograms/mL; read-out: MIC E. Coli
In short: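 Scoring as + or − used a 16 micrograms/mL cutoff on minimum inhibitory concentrations. These came from CLSI-standard microdilution, quality-controlled with reference strains tested in the same run.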

Structure (SMILES) | MIC [1] | MIC [2]
C[C@H](N)CCCc1cc(Cl)c(F)c(-c2cc3cn(-c4ccc([C@@H](N)CCN)cc4)c(=O)nc3[nH]2)c1 [Compound 425] | < 16 µg/mL | < 16 µg/mL
C[C@H](N)CCCc1cc(OC(F)(F)F)c(F)c(-c2cc3cn(-c4ccc([C@@H](C)NCCCN)cc4)c(=O)nc3[nH]2)c1 [Compound 320] | < 16 µg/mL | < 16 µg/mL
C[C@H](CN)COC(=O)N1CC[C@@H](c2cc3cn(-c4ccc(CNCCCNC(=N)N)cc4)c(=O)nc3[nH]2)C1 [Compound 571] | < 16 µg/mL | < 16 µg/mL
N=C(N)N[C@H](CN)CCNCc1ccc(-n2cc3cc(-c4cc(CCC[C@@H](N)CO)cc(Cl)c4F)[nH]c3nc2=O)cc1 [Compound 393] | < 16 µg/mL | < 16 µg/mL
C[C@H](N)CCCc1cc(OC(F)(F)F)c(F)c(-c2cc3cn(-c4ccc(C(CO)CNC(=N)N)cc4)c(=O)nc3[nH]2)c1 (stereo partly shown) [Compound 480] | < 16 µg/mL | < 16 µg/mL
C[C@@H](CN)CN1CC[C@@H](c2cc3cn(-c4ccc(CN5CCCNC5=N)cc4)c(=O)nc3[nH]2)C1 [Compound 574] | > 16 µg/mL | < 16 µg/mL
Cc1cc(OC[C@@H](CCNC(=N)N)NCc2ccc(-n3cc4cc(-c5cc(CCC[C@H](C)N)cc(Cl)c5F)[nH]c4nc3=O)cc2)no1 [Compound 518] | < 16 µg/mL | < 16 µg/mL
C[C@H](N)CCCc1cc(OC(F)(F)F)c(F)c(-c2cc3cn(-c4ccc([C@H](C)NCC[C@H](CCN)NC(=N)N)cc4)c(=O)nc3[nH]2)c1 [Compound 325] | < 16 µg/mL | < 16 µg/mL
C[C@H](NCCCN)c1ccc(-n2cc3cc(-c4cc(CCC[C@H](C)NC(=N)N)cc(Cl)c4F)[nH]c3nc2=O)cc1 [Compound 324] | < 16 µg/mL | < 16 µg/mL
C[C@H](N)CCCc1cc(OC(F)(F)F)c(F)c(-c2cc3cn(-c4ccc([C@H](C)NCC[C@@H](CNC(=O)CN)NC(=N)N)cc4)c(=O)nc3[nH]2)c1 [Compound 423] | < 16 µg/mL | < 16 µg/mL
C[C@H](N)CCCc1cc(OC(F)(F)F)c(F)c(-c2cc3cn(-c4ccc(C(O)[C@@H]5C[C@@H](N)CN5)cc4)c(=O)nc3[nH]2)c1 (stereo partly shown) [Compound 449] | < 16 µg/mL | > 16 µg/mL
C[C@H](N)CCN1CC[C@@H](c2cc3cn(-c4ccc([C@H](C)NCCCNC(=N)N)cc4)c(=O)nc3[nH]2)C1 [Compound 573] | < 16 µg/mL | < 16 µg/mL
C[C@H](N)CCCc1cc(-c2cc3cn(-c4ccc([C@H](N)CCCCNC(=N)N)cc4)c(=O)nc3[nH]2)cc(C(F)(F)F)c1 [Compound 235] |  | < 16 µg/mL
CSC[C@@H](CCN[C@@H](C)c1ccc(-n2cc3cc(-c4cc(CCC[C@H](C)N)cc(Cl)c4F)[nH]c3nc2=O)cc1)NC(=N)N [Compound 287] |  | < 16 µg/mL
C[C@H](NCCCNC(=N)N)c1ccc(-n2cc3cc(-c4cc(CCC[C@H](C)NC(=O)CN)cc(Cl)c4F)[nH]c3nc2=O)cc1 [Compound 72] |  | < 16 µg/mL
N=C(N)NCCCNCc1ccc(-n2cc3cc(-c4cc(C[C@H]5C[C@H](N)CCO5)cc(OC(F)(F)F)c4)[nH]c3nc2=O)cc1 [Compound 37] |  | < 16 µg/mL
C[C@H](N)CCCc1cc(SC(F)(F)F)cc(-c2cc3cn(-c4ccc([C@H](Cc5c[nH]nn5)NCCCNC(=N)N)cc4)c(=O)nc3[nH]2)c1 [Compound 48] |  | < 16 µg/mL
COc1ccc([C@H](c2ccc(SC)cc2)c2ccc(-n3cc4cc(-c5cc(CCC[C@H](C)N)cc(SC(F)(F)F)c5)[nH]c4nc3=O)cc2)cc1 [Compound 8] |  | > 16 µg/mL
C[C@H](N)CCCc1cc(Cl)c(F)c(-c2cc3cn(-c4ccc([C@H](C)NCCC(CC(O)CO)NC(=N)N)cc4)c(=O)nc3[nH]2)c1 (stereo partly shown) [Compound 270] |  | < 16 µg/mL
C[C@H](NCCCNC(=N)N)c1ccc(-n2cc3cc(-c4cc(SC(F)(F)F)cc([C@H](O)CC[C@@H](N)CO)c4)[nH]c3nc2=O)cc1 [Compound 110] |  | < 16 µg/mL
C[C@H](N)CCCc1cc(Cl)c(F)c(-c2cc3cn(-c4ccc([C@H](C)NCC[C@H](CCC#N)NC(=N)N)cc4)c(=O)nc3[nH]2)c1 [Compound 314] |  | < 16 µg/mL
O=c1nc2[nH]ccc2cn1-c1ccc(CNCc2ccncc2)cc1 [Compound 126] |  | > 16 µg/mL
C[C@H](N)CCCc1cc(SC(F)(F)F)cc(-c2cc3cn(-c4ccc([C@@H](NCCCNC(=N)N)C(=O)N5CCNCC5)cc4)c(=O)nc3[nH]2)c1 [Compound 14] |  | < 16 µg/mL
C[C@H](N)CCCc1cc(SC(F)(F)F)cc(-c2cc3cn(-c4ccc(CNCc5ccc(=O)[nH]c5)cc4)c(=O)nc3[nH]2)c1 [Compound 147] |  | > 16 µg/mL
C[C@H](N)CCCc1cc(SC(F)(F)F)cc(-c2cc3cn(-c4ccc([C@H](CCCO)NCCCNC(=N)N)cc4)c(=O)nc3[nH]2)c1 [Compound 100] |  | < 16 µg/mL
C[C@H](N)CCCc1cc(Cl)c(F)c(-c2cc3cn(-c4ccc([C@H](C)NCC[C@H](Cn5ccnn5)NC(=N)N)cc4)c(=O)nc3[nH]2)c1 [Compound 293] |  | < 16 µg/mL
C=CC[C@@H](CCN[C@@H](C)c1ccc(-n2cc3cc(-c4cc(CCC[C@H](C)N)cc(OC(F)(F)F)c4F)[nH]c3nc2=O)cc1)NC(=N)N [Compound 261] |  | < 16 µg/mL
C=CCC[C@H](NCCCNC(=N)N)c1ccc(-n2cc3cc(-c4cc(CCC[C@H](C)N)cc(SC(F)(F)F)c4)[nH]c3nc2=O)cc1 [Compound 82] |  | < 16 µg/mL

Other lines, results leading:

MIC [1] | MIC [2] | Structure (SMILES)
< 16 µg/mL | < 16 µg/mL | CN/C(=C/[N+](=O)[O-])NCC[C@@H]1CCC[C@@H](c2ccc(-n3cc4cc(-c5cc(CCC[C@H](C)N)cc(Cl)c5F)[nH]c4nc3=O)cc2)N1 [Compound 517]
< 16 µg/mL | > 16 µg/mL | C[C@H](N)CCCc1cc(Cl)c(F)c(-c2cc3cn(-c4ccc([C@@H]5CCC[C@@H](CC#N)N5)cc4)c(=O)nc3[nH]2)c1 [Compound 498]
< 16 µg/mL | < 16 µg/mL | C[C@H](N)CCCc1cc(Cl)c(F)c(-c2cc3cn(-c4ccc([C@@H]5CCC[C@@H](CCC(N)=O)N5)cc4)c(=O)nc3[nH]2)c1 [Compound 511]
< 16 µg/mL | < 16 µg/mL | C[C@H](N)CCCc1cc(Cl)c(F)c(-c2cc3cn(-c4ccc([C@@H]5CCC[C@@H](CCNC=N)N5)cc4)c(=O)nc3[nH]2)c1 [Compound 515]
< 16 µg/mL | < 16 µg/mL | C[C@H](N)CCCc1cc(Cl)c(F)c(-c2cc3cn(-c4ccc([C@H]5CCO[C@H](CCN)C5)cc4)c(=O)nc3[nH]2)c1 [Compound 554]
< 16 µg/mL | < 16 µg/mL | C[C@H](N)CCCc1cc(Cl)c(F)c(-c2cc3cn(-c4ccc([C@@H]5CCC[C@@H](CNCC6CCCC6)N5)cc4)c(=O)nc3[nH]2)c1 [Compound 559]
< 16 µg/mL | < 16 µg/mL | C[C@H](N)CCCc1cc(Cl)c(F)c(-c2cc3cn(-c4ccc(CN[C@H](C)C[C@@H](CN)NC(=N)N)cc4)c(=O)nc3[nH]2)c1 [Compound 401]
< 16 µg/mL | < 16 µg/mL | C[C@H](N)CCCc1cc(Cl)c(F)c(-c2cc3cn(-c4ccc([C@H]5CCC[C@H](CCNC(=N)N)N5)cc4)c(=O)nc3[nH]2)c1 [Compound 433]
> 16 µg/mL | > 16 µg/mL | C[C@H](N)CCCc1cc(OC(F)(F)F)c(F)c(-c2cc3cn(-c4ccc([C@@H]5CCC[C@@H](CCn6ccnn6)N5)cc4)c(=O)nc3[nH]2)c1 [Compound 479]
< 16 µg/mL | < 16 µg/mL | C[C@H](N)CCCc1cc(Cl)c(F)c(-c2cc3cn(-c4ccc(C5(CCN)CN(C(=N)N)C5)cc4)c(=O)nc3[nH]2)c1 [Compound 403]
< 16 µg/mL | < 16 µg/mL | C[C@H](N)CCCc1cc(Cl)c(F)c(-c2cc3cn(-c4ccc([C@@H]5CCC[C@@H](CNCc6ccncc6)N5)cc4)c(=O)nc3[nH]2)c1 [Compound 558]
< 16 µg/mL | < 16 µg/mL | C[C@H](N)CCCc1cc(Cl)c(F)c(-c2cc3cn(-c4ccc(C(=O)NCCCN)cc4)c(=O)nc3[nH]2)c1 [Compound 475]
< 16 µg/mL | < 16 µg/mL | C[C@H](N)CCCc1cc(OC(F)(F)F)c(F)c(-c2cc3cn(-c4ccc([C@@H]5CCC[C@@H](CCNc6ncc[nH]6)N5)cc4)c(=O)nc3[nH]2)c1 [Compound 553]
< 16 µg/mL | < 16 µg/mL | C[C@H](CCNC(=N)N)NCc1ccc(-n2cc3cc(-c4cc(CCC[C@@H](N)CO)cc(Cl)c4F)[nH]c3nc2=O)cc1 [Compound 450]
< 16 µg/mL | < 16 µg/mL | C[C@H](N)CCCc1cc(Cl)c(F)c(-c2cc3cn(-c4ccc([C@H](C)N5CC[C@@H](NC(=N)N)C5)cc4)c(=O)nc3[nH]2)c1 [Compound 431]
 | < 16 µg/mL | C[C@H](N)CCCc1cc(Cl)c(F)c(-c2cc3cn(-c4ccc([C@@H](CO)NCCCNC(=N)N)cc4)c(=O)nc3[nH]2)c1 [Compound 44]
 | < 16 µg/mL | C[C@H](N)CCCc1cc(Cl)c(F)c(-c2cc3cn(-c4ccc([C@H](N)C(=O)NCCN)cc4)c(=O)nc3[nH]2)c1 [Compound 254]
 | < 16 µg/mL | C=CC[C@H](N)CCNCc1ccc(-n2cc3cc(-c4cc(CCC[C@H](C)N)cc(Cl)c4F)[nH]c3nc2=O)cc1 [Compound 201]
